Source: patent US20120252729A1, “PTH-CONTAINING THERAPEUTIC/PROPHYLACTIC AGENT FOR OSTEOPOROSIS, CHARACTERIZED IN THAT PTH IS ADMINISTERED ONCE A WEEK IN A UNIT DOSE OF 100 TO 200 UNITS” (ASAHI KASEI PHARMA CORPORATION, priority 2009, published 2012)

Key:
Assay type in all cases: in vivo, human
[1] = test system: high-risk patients diagnosed with primary osteoporosis; test: Working Example 2: bone density of lumbar spine and femur by DXA; conditions: 200 units weekly; for Percentage change in bone density (%), proximal femur / Percentage change in bone density (%), lumbar spine / Percentage change in bone density (%), neck of femur: history of raloxifene hydrochloride; for Change in bone density (%), lumbar spine / Change in bone density (%), neck of femur / Change in bone density (%), proximal femur: patients taking glucocorticoid
Description: For the bone density of the femur, only the left side of the proximal part of the femur, rotated 20°, was measured at the start and every 24 weeks thereafter using dual-energy x-ray absorptiometry (DXA).

[2] = test system: high-risk patients diagnosed with primary osteoporosis; test: Working Example 2: CT geometry of the proximal femur (neck, trochanter, shaft); conditions: 200 units weekly
Description: For the CT geometry, the proximal part of the femur was measured at the start and after 48 and 72 weeks using multislice CT scan.
The effects of the test drug on three parts of the femur (neck of the femur, trochanter, and shaft of the femur) were studied using ordinary CT scans.

[3] = test system: patients diagnosed with primary osteoporosis; test: Working Example 1: lumbar spine bone mineral density by DXA, teriparatide acetate 5 or 100 units once a week plus calcium agent; conditions: mean ± SD
Description: Both the 5 and 100 unit groups were administered two tablets of a calcium agent (containing 500 mg of precipitated calcium carbonate [200 mg as calcium] per tablet) once a day.
The osteoporosis patients were classified as condition shown in Table 1 based on the bone fracture risk factors present, as in Non-patent Reference 13, and compared. High-risk patients were defined as having all three factors involving age, prevalent vertebral fractures, and bone density or bone atrophy; low-risk patients were defined as other than the above.

[4] = mild impairment (≧50-<80), after 24 W
[5] = mild impairment (≧50-<80), after 48 W
[6] = mild impairment (≧50-<80), final
[7] = moderate impairment (<50), after 24 W
[8] = moderate impairment (<50), after 48 W
[9] = moderate impairment (<50), after 72 W
[10] = moderate impairment (<50), final

teriparatide acetate
Percentage change in bone density (%), proximal femur ([1]; 24 W): 2.44%
Percentage change in bone density (%), lumbar spine ([1]; 48 W): 4.96%
Percentage change in bone density (%), neck of femur ([1]; 48 W): 1.03%
Percentage change in bone density (%), proximal femur ([1]; 48 W): 2.26%
Percentage change in bone density (%), lumbar spine ([1]; 72 W): 4.59%
Percentage change in bone density (%), neck of femur ([1]; 72 W): −0.51%
Percentage change in bone density (%), proximal femur ([1]; 72 W): 3.03%
Change in lumbar vertebral density (%), mean [1, 4]: 3.9%
Change in lumbar vertebral density (%), median [1, 4]: 3.7%
Change in lumbar vertebral density (%), mean [1, 5]: 6.0%
Change in lumbar vertebral density (%), median [1, 5]: 5.7%
Change in lumbar vertebral density (%), mean ([1]; mild impairment (≧50-<80), after 72 W): 6.3%
Change in lumbar vertebral density (%), mean [1, 6]: 5.8%
Change in lumbar vertebral density (%), median [1, 6]: 5.4%
Change in lumbar vertebral density (%), mean [1, 7]: 3.7%
Change in lumbar vertebral density (%), median [1, 7]: 3.5%
Change in lumbar vertebral density (%), mean [1, 8]: 4.9%
Change in lumbar vertebral density (%), median [1, 8]: 3.8%
Change in lumbar vertebral density (%), mean [1, 9]: 6.1%
Change in lumbar vertebral density (%), median [1, 9]: 6.3%
Change in lumbar vertebral density (%), mean [1, 10]: 5.6%
Change in lumbar vertebral density (%), median [1, 10]: 4.9%
Change in lumbar vertebral density (%), mean ([1]; normal (≧80), after 24 W): 4.3%
Change in lumbar vertebral density (%), median ([1]; normal (≧80), after 24 W): 5.1%
Change in lumbar vertebral density (%), mean ([1]; normal (≧80), after 48 W): 5.4%
Change in lumbar vertebral density (%), median ([1]; normal (≧80), after 48 W): 5.6%
Change in lumbar vertebral density (%), mean ([1]; normal (≧80), after 72 W): 8.1%
Change in lumbar vertebral density (%), median ([1]; normal (≧80), final): 5.6%
Change in bone density (%), lumbar spine ([1]; 24 W): 3.50%
Change in bone density (%), neck of femur ([1]; 24 W): 2.53%
Change in bone density (%), proximal femur ([1]; 24 W): 2.46%
Change in bone density (%), lumbar spine ([1]; 48 W): 5.97%
Change in bone density (%), neck of femur ([1]; 48 W): 2.79%
Change in bone density (%), proximal femur ([1]; 48 W): 3.39%
Change in bone density (%), lumbar spine ([1]; 72 W): 6.82%
Change in bone density (%), neck of femur ([1]; 72 W): 2.44%
Change in bone density (%), proximal femur ([1]; 72 W): 3.06%
Maximum section modulus (SM (Z min)), change from baseline after 48 weeks (%) ([2]; neck of femur): 3.43%
Maximum section modulus (SM (Z min)), change from baseline after 72 weeks (%) ([2]; neck of femur): 1.87%
Volume bone mineral density (cortical bone) [vBMD cortical], change from baseline after 48 weeks (%) ([2]; neck of femur): −0.77%
Volume bone mineral density (cortical bone) [vBMD cortical], change from baseline after 72 weeks (%) ([2]; neck of femur): −1.14%
Volume bone mineral density (total) [vBMD total], change from baseline after 48 weeks (%) ([2]; neck of femur): 0.92%
Volume bone mineral density (total) [vBMD total], change from baseline after 72 weeks (%) ([2]; neck of femur): 0.15%
Maximum section modulus (SM (Z min)), change from baseline after 48 weeks (%) ([2]; shaft of femur): 1.28%
Maximum section modulus (SM (Z min)), change from baseline after 72 weeks (%) ([2]; shaft of femur): 2.69%
Volume bone mineral density (cortical bone) [vBMD cortical], change from baseline after 48 weeks (%) ([2]; shaft of femur): 0.59%
Volume bone mineral density (cortical bone) [vBMD cortical], change from baseline after 72 weeks (%) ([2]; shaft of femur): 0.18%
Volume bone mineral density (total) [vBMD total], change from baseline after 48 weeks (%) ([2]; shaft of femur): 1.03%
Volume bone mineral density (total) [vBMD total], change from baseline after 72 weeks (%) ([2]; shaft of femur): 1.25%
Maximum section modulus (SM (Z min)), change from baseline after 48 weeks (%) ([2]; trochanter): 5.19%
Maximum section modulus (SM (Z min)), change from baseline after 72 weeks (%) ([2]; trochanter): 3.20%
Volume bone mineral density (cortical bone) [vBMD cortical], change from baseline after 48 weeks (%) ([2]; trochanter): −0.49%
Volume bone mineral density (cortical bone) [vBMD cortical], change from baseline after 72 weeks (%) ([2]; trochanter): −1.49%
Volume bone mineral density (total) [vBMD total], change from baseline after 48 weeks (%) ([2]; trochanter): 1.36%
Volume bone mineral density (total) [vBMD total], change from baseline after 72 weeks (%) ([2]; trochanter): 0.95%
Lumbar spine bone mineral density (% change) ([3]; high-risk patients, 5 units once a week, after 26 W): −0.9 ± 4.4%
Lumbar spine bone mineral density (% change) ([3]; high-risk patients, 5 units once a week, after 52 W): −0.6 ± 4.1%
Lumbar spine bone mineral density (% change) ([3]; high-risk patients, 5 units once a week, after 78 W): 0.4 ± 4.1%
Lumbar spine bone mineral density (% change) ([3]; high-risk patients, 5 units once a week, after 104 W): 0.4 ± 4.0%
Lumbar spine bone mineral density (% change) ([3]; high-risk patients, 5 units once a week, final check): −0.1 ± 4.8%
Lumbar spine bone mineral density (% change) ([3]; high-risk patients, 100 units once a week, after 26 W): 3.3 ± 4.5 %
Lumbar spine bone mineral density (% change) ([3]; high-risk patients, 100 units once a week, after 52 W): 4.3 ± 4.5 %
Lumbar spine bone mineral density (% change) ([3]; high-risk patients, 100 units once a week, after 78 W): 4.0 ± 4.5 %
Lumbar spine bone mineral density (% change) ([3]; high-risk patients, 100 units once a week, after 104 W): 4.9 ± 4.2 %
Lumbar spine bone mineral density (% change) ([3]; high-risk patients, 100 units once a week, final check): 4.5 ± 4.6 %
Lumbar spine bone mineral density (% change) ([3]; low-risk patients, 5 units once a week, after 26 W): −0.6 ± 6.4%
Lumbar spine bone mineral density (% change) ([3]; low-risk patients, 5 units once a week, after 52 W): −0.7 ± 6.2%
Lumbar spine bone mineral density (% change) ([3]; low-risk patients, 5 units once a week, after 78 W): 1.9 ± 7.5%
Lumbar spine bone mineral density (% change) ([3]; low-risk patients, 5 units once a week, final check): −0.6 ± 5.7%
